Results: patent US11192849B2, “Compounds, compositions, and methods for modulating ferroptosis and treating excitotoxic disorders” (THE TRUSTEES OF COLUMBIA UNIVERSITY IN THE CITY OF NEW YORK, priority 2013, dated 2021)

Columns and labels:
[1] = tested on: rat corticostriatal brain slices, medium spiny neurons; test: Brain slice assay for HD (httN90Q73-transfected corticostriatal slices); assay type: cell-based; conditions: for number of healthy medium spiny neurons (MSNs): 10 nM, 100 nM and 1 μM, four days
Method: 250 μm corticostriatal brain slices were prepared from postnatal day 10 CD Sprague-Dawley rat pups (Charles River) as previously described (Hoffstrom et al., 2010). Brain slice explants were placed in interface culture in 6-well plates using culture medium containing 15% heat-inactivated horse serum, 10 mM KCl, 10 mM HEPES, 100 U/ml penicillin/streptomycin, 1 mM MEM sodium pyruvate, and 1 mM L-glutamine in Neurobasal A (Invitrogen) and maintained in humidified incubators under 5% CO2 at 32 deg. C. A custom-modified biolistic device (Helios Gene Gun; Bio-Rad) was used to transfect the brain slices with a human htt exon-1 expression construct containing a 73 CAG repeat (“HttN90Q73”) in the gWiz backbone (Genlantis) together with a YFP expression construct to visualize transfected neurons. Control brain slices were transfected with gWiz blank vector and YFP at the equivalent DNA amounts. After 4 days of incubation, MSNs were identified by their location within the striatum and by their characteristic dendritic morphology and scored as healthy if expressing bright and continuous YFP labeling throughout, normal-sized cell bodies, and >2 primary dendrites >2 cell bodies long, as previously described^21. Data were expressed as mean numbers of healthy MSNs per striatal region in each brain slice, with statistical significance tested by ANOVA followed by Dunnett's post hoc comparison test at the 0.05 confidence level. […]
Fer-1 attenuates lipid peroxidation and ferroptosis in cancer cells treated with small molecules that block cystine import or glutathione production, as well as cell death in rat organotypic hippocampal brain slices treated with toxic concentrations of glutamate, which also blocks cystine import (Dixon, et al., 2012). […] Four days later, the number of healthy medium spiny neurons (MSNs) was quantified, as previously described (Varma, et al., 2011, Hoffstrom, et al., 2010).

[2] = tested on: primary pre-oligodendrocytes; test: PVL model: cystine deprivation of developing oligodendrocytes; assay type: cell-based, rat; conditions: 100 nM, 24 hrs, Alamar Blue
Method: Primary pre-oligodendrocytes cultures were prepared from the forebrains of P2 Sprague Dawley (Charles River Laboratory) rat pups using a differential detachment method. Forebrains free of meninges were dissociated with Hanks' Balanced Salt Solution containing 0.01% trypsin and 10 μg/ml DNase, and triturated with DMEM containing 10% heat-inactivated fetal bovine serum and 100 U/ml penicillin and 100 μg/ml streptomycin. Dissociated cells were plated onto poly-D-lysine-coated 75 cm^2 flasks and fed cells every other day for 10-17 days. On day 10 or 17, following 1 hour pre-shake at 200 rpm 37° C. to remove microglia, the flasks were shaken overnight to separate pre-oligodendrocytes from astrocyte layer. The cell suspension was passed through a 20 μm filter and plated onto uncoated (bacteriological) petri dishes for 1 hour in incubator to remove residual microglia/astrocytes. Cell suspension was plated onto poly-D,L-ornithine-coated plates with DMEM, 1×ITS (Life Technologies), 2 mM L-glutamine, 1 mM sodium pyruvate, 0.5% FBS and 0.05% gentamicin (Sigma), 10 ng/ml PDGF and 10 ng/ml FGF (Peprotech), with full medium change the next day and half medium change every other day. […] Fluorescence was assayed in each well using FluoroCount Plate Reader (Packard), with Packard Plate Reader Version 3.0, and 530 nm excitation, and 590 nm emission filters. […]

In the case of `CCOC(=O)c1ccc(NC2CCCCC2)c(NCc2ccccc2)c1` [SRS11-92, ethyl 3-(benzylamino)-4-(cyclohexylamino)benzoate], the “number of healthy medium spiny neurons (MSNs)” value [1] is reported as “significant increase in the number of healthy MSNs” and the “protection of oligodendrocytes from cystine deprivation” value [2] is reported as “fully protected OLs from cystine deprivation”.
For `CCOC(=O)c1ccc(NC2CCCCC2)c(N)c1` [SRS8-28 (Fer-1), ethyl 3-amino-4-(cyclohexylamino)benzoate], the “number of healthy medium spiny neurons (MSNs)” value [1] was “significant increase in the number of healthy MSNs”, the “number of healthy MSNs versus controls” value ([1]; 1 μM) was “statistically indistinguishable from both the YFP (no htt) control and the control inhibitor combination” and the “protection of oligodendrocytes from cystine deprivation” value [2] was “fully protected OLs from cystine deprivation”.
